Values after ≈ are worked out from the molar mass of the structure shown.
What was measured:
Type in all cases: cell-based
Candida albicans 90028 = assay: In vitro antifungal assay (Example IX), microdilution broth, MIC; conditions: minimum inhibitory concentration (≥50% inhibition), 35° C., 40-48 h, RPMI1640
Summary of the method: (§1)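 CLSI broth microdilution in RPMI1640 with 2.5×10^3 cells/mL and final compound concentrations of 2-0.0019 μg/mL (1% DMSO). C. albicans 90028 plates were incubated at 35° C. for 40-48 h and C. neoformans H99 for 72 h. MIC was read as minimum inhibitory concentration, verified at 600 nm.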

[1] = system: Cryptococcus neoformans H99; assay: as above; conditions: minimum inhibitory concentration (≥50% inhibition), 35° C., 72 h, RPMI1640
Summary of the method: as §1

[2] = system: Aspergillus fumigatus MYA3626; assay: In vitro antifungal assay (Example IX), microdilution broth, MEC; conditions: minimum effective concentration (shortening of hyphae), 35° C., 40-48 h, RPMI1640
Summary of the method: (§2)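 Spore suspensions of A. fumigatus and R. pusillus adjusted to 1-2×10^4 spores/mL in RPMI1640 and exposed to compound dilutions prepared in DMSO, by broth microdilution. MEC taken as the lowest concentration shortening hyphae versus DMSO control wells, read as for echinocandins.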

[3] = system: Rhizomucor pusillus 46342; assay: as above; conditions: minimum effective concentration (shortening of hyphae), 35° C., 40-48 h, RPMI1640
Summary of the method: as §2

Cryptococcus gattii = assay: In vitro antifungal assay (Example IX), microdilution broth, MIC; conditions: minimum inhibitory concentration (≥50% inhibition), 35° C., 72 h (Cryptococcus), RPMI1640
Experimental: Preparation of Fungal Suspension. C. albicans 90028 and C. neoformans H99 strains were streaked from frozen stocks at −80° C. onto Sabouraud Dextrose Agar (SDA) plates. These were allowed to grow for 24 h (C. albicans) and 48 h (C. neoformans) at 35° C. before using them in the assay. 5-6 individual colonies were picked and diluted into sterile water to obtain a fungal suspension. The cell density of the suspension was determined and the culture diluted with RPMI1640 medium to obtain a fungal suspension of 2.5×10^3 cells/mL. The suspension was used in the MIC measurement as described below.
Preparation of Compound Stocks and Intermediate Dilutions: The compounds were weighed and DMSO was added to prepare a 10 mg/mL stock. The solutions were mixed by vortexing and sonication at 37° C. for 5-10 mins. The resulting solutions were sterile filtered using a PTFE filter, and aliquoted (12 μL or as needed) and stored at −20° C. Intermediate compound dilutions were prepared in sterile polypropylene tubes in 100% DMSO. The compound stock solution was first diluted in DMSO to obtain a concentration of […] to 0.19 μg/mL.
MIC/MEC Measurement: 99 μL 1 of the fungal suspension in RPMI1640 prepared as above was added to each well of a 96-well round bottom assay plate. 1 μL of the intermediate compound dilutions (200-0.19 μg/mL) were added to wells of the plate. This led to a 100-fold dilution of the intermediate dilutions resulting in a final compound concentration of 2-0.0019 μg/mL in the plate. 1 μL of DMSO was added to “No drug” control wells. The solutions were mixed by shaking on a plate shaker for 10 mins and plates incubated at 35° C. for 40-48 h (C. albicans, A. fumigatus, R. pusillus) and 72 h (Cryptococcus). […] This was validated by thorough mixing and reading at 600 nm on a microplate reader. The minimum concentration that led to shortening of hyphae as compared to hyphal growth in DMSO control wells was determined as the minimum effective concentration (MEC) for A. fumigatus and R. pusillus (as read for echinocandins). The use of the MIC and MEC endpoints against yeasts and molds, respectively has been described by Pfaller M A, Duncanson F, Messer S A, Moet G J, Jones R N, Castanheira M. Antimicrob Agents Chemother. 2011. 55(11):5155-8. In vitro activity of a novel broad-spectrum antifungal, E1210, tested against Aspergillus spp. determined by CLSI and EUCAST broth microdilution methods. Results are shown in Table 2, and the letters indicate the following ranges in μg/mL: […]

Row | Compound | MIC (Candida albicans 90028) [µg/mL] | MIC [1] [µg/mL] | minimal effective concentration [2] [µg/mL] | minimal effective concentration [3] [µg/mL] | MIC (Cryptococcus gattii) [µg/mL]
1 | Nc1ncccc1-c1cc(Cc2ccc(OCc3ccnc(Cl)c3)nc2)no1 [compound 83, 3-(3-((6-((2-chloropyridin-4-yl)methoxy)pyridin-3-yl)methyl)isoxazol-5-yl)pyridin-2-amine] | 0.01 to 0.1 (≈ 0.0254 to 0.254 µM) | ≤ 0.01 | 0.01 to 0.1 | > 1 | 0.01 to 0.1 (≈ 0.0254 to 0.254 µM)
2 | Nc1ncccc1-c1cc(Cc2ccc(OCc3ccc4ccccc4n3)cc2)no1 [compound 27, 3-(3-(4-(quinolin-2-ylmethoxy)benzyl)isoxazol-5-yl)pyridin-2-amine] | 0.1 to 1 (≈ 0.245 to 2.45 µM) | 0.1 to 1 (≈ 0.245 to 2.45 µM) | > 1 | > 1 | 0.1 to 1 (≈ 0.245 to 2.45 µM)
3 | Nc1ncccc1-c1cc(Cc2ccc(CC3=CCCC3)cc2)no1 [compound 17, 3-(3-(4-(cyclopent-1-en-1-ylmethyl)benzyl)isoxazol-5-yl)pyridin-2-amine] | 0.01 to 0.1 (≈ 0.0302 to 0.302 µM) | 0.01 to 0.1 (≈ 0.0302 to 0.302 µM) | 0.01 to 0.1 | 0.1 to 1 | 0.01 to 0.1 (≈ 0.0302 to 0.302 µM)
4 | Nc1ncccc1-c1cc(Cc2ccc(Nc3cc(F)ccc3F)nc2)no1 [compound 244, 5-((5-(2-aminopyridin-3-yl)isoxazol-3-yl)methyl)-N-(2,5-difluorophenyl)pyridin-2-amine] | 0.1 to 1 (≈ 0.264 to 2.64 µM) | 0.1 to 1 (≈ 0.264 to 2.64 µM) | 0.1 to 1 | > 1 | 0.1 to 1 (≈ 0.264 to 2.64 µM)
5 | Nc1ncccc1-c1cc(Cc2ccc(OCc3nccs3)nc2)no1 [compound 42, 3-(3-((6-(thiazol-2-ylmethoxy)pyridin-3-yl)methyl)isoxazol-5-yl)pyridin-2-amine] | 0.01 to 0.1 (≈ 0.0274 to 0.274 µM) | 0.01 to 0.1 (≈ 0.0274 to 0.274 µM) | 0.01 to 0.1 | 0.1 to 1 | 0.01 to 0.1 (≈ 0.0274 to 0.274 µM)
6 | Nc1ncccc1-c1cc(Cc2ccc(OCc3cc(F)cc(F)c3)nc2)no1 [compound 84, 3-(3-((6-((3,5-difluorobenzyl)oxy)pyridin-3-yl)methyl)isoxazol-5-yl)pyridin-2-amine] | 0.01 to 0.1 (≈ 0.0254 to 0.254 µM) | 0.01 to 0.1 (≈ 0.0254 to 0.254 µM) | 0.01 to 0.1 | 0.1 to 1 | 0.1 to 1 (≈ 0.254 to 2.54 µM)
7 | Cc1nc(COc2ccc(Cc3cc(-c4cccnc4N)on3)cn2)cs1 [compound 50, 3-(3-((6-((2-methylthiazol-4-yl)methoxy)pyridin-3-yl)methyl)isoxazol-5-yl)pyridin-2-amine] | 0.1 to 1 (≈ 0.264 to 2.64 µM) | 0.1 to 1 (≈ 0.264 to 2.64 µM) | 0.1 to 1 | > 1 | 0.1 to 1 (≈ 0.264 to 2.64 µM)
8 | Nc1ncccc1-c1cc(Cc2ccc(Nc3ccccc3)cc2)no1 [Example 144, 3-(3-(4-(phenylamino)benzyl)isoxazol-5-yl)pyridin-2-amine] | 0.01 to 0.1 (≈ 0.0292 to 0.292 µM) | 0.01 to 0.1 (≈ 0.0292 to 0.292 µM) | 0.01 to 0.1 | 0.1 to 1 | 0.01 to 0.1 (≈ 0.0292 to 0.292 µM)
9 | Nc1ncccc1-c1cc(Cc2cnc(Nc3ccccc3F)c(F)c2)no1 [compound 250, 5-((5-(2-aminopyridin-3-yl)isoxazol-3-yl)methyl)-3-fluoro-N-(2-fluorophenyl)pyridin-2-amine] | 0.01 to 0.1 (≈ 0.0264 to 0.264 µM) | 0.01 to 0.1 (≈ 0.0264 to 0.264 µM) | 0.01 to 0.1 | 0.1 to 1 | 0.1 to 1 (≈ 0.264 to 2.64 µM)
10 | Nc1ncccc1-c1cc(Cc2ccc(Nc3ccccc3F)nc2)no1 [compound 60, 5-((5-(2-aminopyridin-3-yl)isoxazol-3-yl)methyl)-N-(2-fluorophenyl)pyridin-2-amine] | 0.01 to 0.1 (≈ 0.0277 to 0.277 µM) | 0.01 to 0.1 (≈ 0.0277 to 0.277 µM) | 0.1 to 1 | > 1 | 0.01 to 0.1 (≈ 0.0277 to 0.277 µM)
11 | CC(C)=CCOc1ccc(Cc2cc(-c3ccc(N)nc3N)on2)cc1 [compound 135, 3-(3-(4-((3-methylbut-2-en-1-yl)oxy)benzyl)isoxazol-5-yl)pyridine-2,6-diamine] | 0.1 to 1 (≈ 0.285 to 2.85 µM) | 0.01 to 0.1 (≈ 0.0285 to 0.285 µM) | 0.01 to 0.1 | 0.1 to 1 | 0.1 to 1 (≈ 0.285 to 2.85 µM)
12 | Nc1ncccc1-c1cc(Cc2ccc(Oc3ccc(F)cc3F)nc2)no1 [compound 75, 3-(3-((6-(2,4-difluorophenoxy)pyridin-3-yl)methyl)isoxazol-5-yl)pyridin-2-amine] | 0.01 to 0.1 (≈ 0.0263 to 0.263 µM) | 0.01 to 0.1 (≈ 0.0263 to 0.263 µM) | 0.01 to 0.1 | 0.1 to 1 | 0.1 to 1 (≈ 0.263 to 2.63 µM)
13 | Cn1cc(Cc2ccc(Cc3cc(-c4cccnc4N)on3)cc2)cn1 [compound 11, 3-(3-(4-((1-methyl-1H-pyrazol-4-yl)methyl)benzyl)isoxazol-5-yl)pyridin-2-amine] | 0.1 to 1 (≈ 0.29 to 2.9 µM) | 0.1 to 1 (≈ 0.29 to 2.9 µM) | 0.01 to 0.1 | > 1 | 0.1 to 1 (≈ 0.29 to 2.9 µM)
14 | Nc1ncccc1-c1cc(Cc2ccc(OCc3cccs3)nc2)no1 [compound 40, 3-(3-((6-(thiophen-2-ylmethoxy)pyridin-3-yl)methyl)isoxazol-5-yl)pyridin-2-amine] | 0.1 to 1 (≈ 0.274 to 2.74 µM) | 0.01 to 0.1 (≈ 0.0274 to 0.274 µM) | 0.01 to 0.1 | 0.1 to 1 | 0.01 to 0.1 (≈ 0.0274 to 0.274 µM)
15 | Nc1ncccc1-c1cc(Cc2ccc(OCc3cncc(F)c3)cc2)no1 [compound 115, 3-(3-(4-((5-fluoropyridin-3-yl)methoxy)benzyl)isoxazol-5-yl)pyridin-2-amine] | 0.1 to 1 (≈ 0.266 to 2.66 µM) | 0.1 to 1 (≈ 0.266 to 2.66 µM) | 0.01 to 0.1 | > 1 | 0.1 to 1 (≈ 0.266 to 2.66 µM)
16 | Nc1ncccc1-c1cc(Cc2ccc(OCc3cccc(F)c3)nc2)no1 [compound 80, 3-(3-((6-((3-fluorobenzyl)oxy)pyridin-3-yl)methyl)isoxazol-5-yl)pyridin-2-amine] | ≤ 0.01 | 0.01 to 0.1 (≈ 0.0266 to 0.266 µM) | ≤ 0.01 | 0.1 to 1 | 0.01 to 0.1 (≈ 0.0266 to 0.266 µM)
17 | Nc1ncccc1-c1cc(Cc2ccc(Oc3ncccc3F)cc2)no1 [compound 235, 3-(3-(4-((3-fluoropyridin-2-yl)oxy)benzyl)isoxazol-5-yl)pyridin-2-amine] | 0.01 to 0.1 (≈ 0.0276 to 0.276 µM) | ≤ 0.01 | 0.01 to 0.1 | 0.1 to 1 | ≤ 0.01
18 | Nc1ccc(-c2cc(Cc3ccc(Oc4cccc(F)n4)cc3)no2)c(N)n1 [compound 134, 3-(3-(4-((6-fluoropyridin-2-yl)oxy)benzyl)isoxazol-5-yl)pyridine-2,6-diamine] | 0.1 to 1 (≈ 0.265 to 2.65 µM) | 0.01 to 0.1 (≈ 0.0265 to 0.265 µM) | 0.1 to 1 | 0.1 to 1 | 0.01 to 0.1 (≈ 0.0265 to 0.265 µM)
19 | Cc1csc(COc2ccc(Cc3cc(-c4cccnc4N)on3)cn2)n1 [compound 82, 3-(3-((6-((4-methylthiazol-2-yl)methoxy)pyridin-3-yl)methyl)isoxazol-5-yl)pyridin-2-amine] | 0.1 to 1 (≈ 0.264 to 2.64 µM) | 0.01 to 0.1 (≈ 0.0264 to 0.264 µM) | 0.01 to 0.1 | > 1 | 0.01 to 0.1 (≈ 0.0264 to 0.264 µM)
20 | Nc1ncccc1-c1cc(Cc2ccc(OCc3ccccc3F)cc2)no1 [Example 141, 3-(3-(4-((2-fluorobenzyl)oxy)benzyl)isoxazol-5-yl)pyridin-2-amine] | 0.01 to 0.1 (≈ 0.0266 to 0.266 µM) | 0.01 to 0.1 (≈ 0.0266 to 0.266 µM) | 0.01 to 0.1 | 0.1 to 1 | 0.01 to 0.1 (≈ 0.0266 to 0.266 µM)
21 | Nc1ncccc1-c1cc(Cc2ccc(Oc3cccc(F)c3)nc2)no1 [compound 130, 3-(3-((6-(3-fluorophenoxy)pyridin-3-yl)methyl)isoxazol-5-yl)pyridin-2-amine] | 0.01 to 0.1 (≈ 0.0276 to 0.276 µM) | ≤ 0.01 | 0.01 to 0.1 | 0.1 to 1 | 0.01 to 0.1 (≈ 0.0276 to 0.276 µM)
